A short description of assay [1]: Antiproliferative activity against human MA9.3RAS cells after 72 hrs by MTT assay. The format is functional, cell-based. A general note: Tetrazolium dyes change colour on reduction, which living cells bring about.
Assay [2] is described as follows: Antiproliferative activity against human MA9.3ITD cells after 72 hrs by MTT assay. The format is functional, cell-based.
Assay [3] deals with U-937. Nature of the assay: Antiproliferative activity against human U-937 cells after 72 hrs by MTT assay. Format: functional, cell-based. As to conditions: U-937, 72 h.
In another assay the test system is COLO357. Kind of assay: Antiproliferative activity against human COLO357 cells after 72 hrs by MTT assay. Format: functional, cell-based. As to conditions: COLO357, 72 h.
Assay [4] has as its system Kasumi 1. Nature of the assay: Antiproliferative activity against human Kasumi 1 cells after 72 hrs by MTT assay. Conditions: Kasumi 1, 72 h. Format: functional, cell-based.
For assay [5], the system named is Kasumi 1. Kind of assay: Inhibition of METTL16 in human Kasumi 1 cells at 10 to 20 nM assessed as increase in global m6A levels measured after 48 hrs. Conditions: dose 10-20 nM. The format is cell-based.
The test system of assay [6] is U-937. Kind of assay: Binding affinity towards METTL16 in human U-937 cells at 0.1 to 500 uM and measured by drug affinity responsive target stability (DARTS) assay. Format: cell-based. As to conditions: dose 0.1-500 µM.
The test system of a further assay is T98G. Nature of the assay: Antiproliferative activity against human T98G cells after 72 hrs by MTT assay. The format is functional, cell-based.
The test system of a further assay is CA46. Kind of assay: Antiproliferative activity against human CA46 cells after 72 hrs by MTT assay. Conditions: CA46, 72 h. Format: functional, cell-based.
The next assay relates to MONO-MAC-6. Kind of assay: Antiproliferative activity against human MONO-MAC-6 cells after 72 hrs by MTT assay. As to conditions: MONO-MAC-6, 72 h. The format is functional, cell-based.
For another assay, the system named is LN-229. Nature of the assay: Antiproliferative activity against human LN-229 cells after 72 hrs by MTT assay. The format is functional, cell-based. As to conditions: LN-229, 72 h.
Assay [7] concerns U-937. Kind of assay: Inhibition of METTL16 in human U-937 cells at 10 to 20 nM assessed as increase in global m6A levels measured after 48 hrs. Conditions: dose 10-20 nM. Format: cell-based.
For a further assay, the system named is SUP-B15. Kind of assay: Antiproliferative activity against human SUP-B15 cells after 72 hrs by MTT assay. The format is functional, cell-based. As to conditions: SUP-B15, 72 h.
The test system of another assay is HL-60. Nature of the assay: Antiproliferative activity against human HL-60 cells after 72 hrs by MTT assay. Format: functional, cell-based. As to conditions: HL-60, 72 h.
The next assay concerns HeLa. Nature of the assay: Antiproliferative activity against human HeLa cells after 72 hrs by MTT assay. Format: functional, cell-based.
For another assay, the system named is MA9.3RAS. Nature of the assay: Inhibition of METTL16 in human MA9.3RAS cells at 10 to 20 nM assessed as increase in global m6A levels measured after 48 hrs. Format: cell-based. Conditions: dose 10-20 nM.
The next assay deals with U-87 MG. Nature of the assay: Antiproliferative activity against human U-87 MG cells after 72 hrs by MTT assay. The format is functional, cell-based, U-87MG ATCC.
The next assay has as its system RS4-11. Kind of assay: Antiproliferative activity against human RS4-11 cells after 72 hrs by MTT assay. The format is functional, cell-based. Conditions: RS4-11, 72 h.
A further assay relates to HEL. Kind of assay: Antiproliferative activity against human HEL cells after 72 hrs by MTT assay. Format: functional, cell-based.
The test system of a further assay is A 172. Nature of the assay: Antiproliferative activity against human A-172 cells after 72 hrs by MTT assay. The format is functional, cell-based. As to conditions: A 172, 72 h.
Assay [8] has as its system U-937. Kind of assay: Binding affinity towards METTL16 in human U-937 cells at 0.1 to 500 uM and measured by cellular thermal shift assay (CETSA). Format: cell-based. As to conditions: dose 0.1-500 µM.
The subject of the next assay is DG-75. Kind of assay: Antiproliferative activity against human DG-75 cells after 72 hrs by MTT assay. Format: functional, cell-based. As to conditions: DG-75, 72 h.
The next assay relates to NOMO-1. Kind of assay: Antiproliferative activity against human NOMO-1 cells after 72 hrs by MTT assay. Format: functional, cell-based. Conditions: NOMO-1, 72 h.

Molecules are shown by their SMILES. Calls of active or inactive are those of the source. The rule behind the calls is not given here.

Usually IC50 stands for the concentration that gives 50% inhibition. For `Nc1ccc(Cn2ccc3c4c(N)nc(N)nc4ccc32)c(CO)c1`, the figures for the IC50 (in assay [1]; in [2]; in the assay on U-937 [3]) were 45 nM, 47 nM and 23 nM, respectively.
As to `Nc1ccc(Cn2ccc3c4c(N)nc(N)nc4ccc32)cc1`, the IC50 amounted to 1030 nM in the assay with COLO357; 13 nM in the assay with Kasumi 1 [4]; 10.8 µM in the assay with T98G; 109 nM in the assay with CA46; 28 nM in the assay with MONO-MAC-6; 558 nM in the assay on LN-229. The IC50 was 16.1 nM in assay [1]; 13 nM with SUP-B15; 15.7 nM in [2]; 32.6 nM with HL-60; 64 nM with HeLa; 9.63 nM with U-937 [3]. Further, the IC50 in the assay with U-87 MG is 20.9 µM; with RS4-11, 37 nM; in the assay on HEL, 15.4 nM; in the assay on A 172 it was 682 nM; with DG-75, 44 nM. Moreover, the inhibition entry with Kasumi 1 [5], in the assay with U-937 [7] and in the assay on MA9.3RAS was “Active” throughout. The result in the assay with U-937 [6] and in the assay on U-937 [8] was Active.
Turning to `Nc1ccc(CO)c(Cn2ccc3c4c(N)nc(N)nc4ccc32)c1`, the IC50 came to 55 nM in the assay on NOMO-1, 70 nM in assay [1], 54 nM in [2] and 36 nM in the assay on U-937 [3].

The record behind these values is ChEMBL document CHEMBL5050855, “Mettl16 inhibitors and uses thereof” (2021).
